Measured values reported in patent US20230082968A1, “EXOGENOUS NITRIC OXIDE FOR IMPROVED SUSCEPTIBILITY AND LOWERED ANTIBIOTIC RESISTANCE IN RESISTANT RESPIRATORY BACTERIA” (The University of North Carolina at Chapel Hill, priority 2020, published 2023).

Columns and labels:
[1] = test system: P. aeruginosa strain K (PAK); test: Checkerboard assay of antibiotic combinations with COS/NO; format: cell-based, Pseudomonas aeruginosa; details: antibiotic in combination with COS/NO, 24 h
Protocol: Frozen stocks of bacteria were reconstituted in TSB (3 mL) and cultured overnight. The overnight cultures of bacteria (3 mL) were inoculated into fresh TSB (30 mL) and grown to 10^8 CFU/mL. […] Inhibition was assessed with the resazurin assay and the minimum inhibitory concentration (MIC) was defined as the lowest concentration of antibacterial agent required to prevent the reduction of resazurin (i.e., color change from blue to pink).
Mol. Pharm. 7, 2289-2296 (2010)]. Briefly, bacteria at a final concentration of 10^6 CFU/mL were incubated with an array of antimicrobial combinations in TSB for 24 h at 37° C. The highest concentration for each antimicrobial tested was 2 × MIC. […] The fractional […] concentration index (ΣFIC) was calculated using Equation 1, reported by Elion et al. [Elion, G. B., Singer, S. & Hitchings, G. H. Antagonists of Nucleic Acid Derivatives: VIII. Synergism in combinations of biochemically related antimetabolites. […] Checkerboard assays were conducted in at least duplicate for each bacterial strain and for each drug combination.
Characterization of the combinations was performed using the following criteria based on ΣFIC values: < 0.25 is highly synergistic; ≤ 0.5 is synergistic; ≤ 1 is additive; ≤ 4 is indifferent; > 4 is antagonistic.

PA 229 = test: 24 h combination time kill assay; format: cell-based, P. aeruginosa; details: PA 229, COS/NO and tobramycin, 24 h time kill
Protocol: (§1) Time-kill assays were performed over 24 h in order to quantitatively probe the effect of each antibiotic-NO combination as a function of time [Belley, A. et al. Assessment by time-kill methodology of the synergistic effects of oritavancin in combination with other antimicrobial agents against Staphylococcus aureus. Antimicrob. Agents Chemother. 52, 3820-3822 (2008)]. […] Aliquots were sampled at 0, 3, 6, and 24 h, serially diluted, and logarithmically plated on TSA plates using an Eddy Jet spiral plater (IUL; Farmingdale, NY). Bacterial viability was assessed by counting the number of colonies formed with a Flash & Go colony counter (IUL; Farmingdale, NY).

PA 230 = test: 24 h combination time kill assay; format: cell-based, P. aeruginosa; details: PA 230 (tobramycin-resistant), COS/NO and tobramycin, 24 h time kill
Protocol: as §1

PA 237 = test: 24 h combination time kill assay; format: cell-based, P. aeruginosa; details: PA 237, COS/NO and tobramycin, 24 h time kill
Protocol: as §1

PA 239 = test: 24 h combination time kill assay; format: cell-based, P. aeruginosa; details: PA 239 (tobramycin-resistant), COS/NO and tobramycin, 24 h time kill
Protocol: as §1

AR 229 = test: Nitric oxide pretreatment with planktonic bacteria; format: cell-based, P. aeruginosa; details: AR 229, antibiotic 0.625 µg/mL, NO-pretreatment 25% MIC 4 h
Protocol: (§2) After exposure, wells were serially diluted in sterile MilliQ water and spiral plated on TSA. Viability was assessed by colony counting.

AR 237 = test: Nitric oxide pretreatment with planktonic bacteria; format: cell-based, P. aeruginosa; details: AR 237, antibiotic 0.625 µg/mL, NO-pretreatment 25% MIC 4 h
Protocol: as §2

ATCC S.aureus = test: Nitric oxide pretreatment with planktonic bacteria; format: cell-based, Staphylococcus aureus
Protocol: as §2

ATCC MRSA = test: Nitric oxide pretreatment with planktonic bacteria; format: cell-based, Methicillin-resistant S. aureus
Protocol: as §2

ATCC BCC = test: Nitric oxide pretreatment with planktonic bacteria; format: cell-based, Burkholderia cepacia complex
Protocol: as §2

AR 542 = test: Nitric oxide pretreatment with planktonic bacteria; format: cell-based, Klebsiella pneumoniae
Protocol: as §2

PAK biofilm = test: Biofilm pretreatment with nitric oxide; format: cell-based, Pseudomonas aeruginosa
Protocol: (§3) Bacteria were cultured to a concentration of 10^8 CFU/mL in TSB and diluted to 10^6 CFU/mL in 200 µL TSB in a 96 well plate. Plates were incubated with shaking for 3 days until a non-surface attached viscous aggregate formed that was easily separated from growth medium. Biofilms (100 µL) were removed, gently injected into PBS (200 µL) to remove loosely adhered planktonic cells, and added to a sterile 96 well plate. To the wells, PBS or test agent dissolved in PBS (100 µL) was added and incubated with shaking for 24 h. The biofilm (100 µL) was removed from the well plate, added to 900 µL sterile MilliQ water, and disrupted with pipetting and vortexing. Disrupted biofilms were serially diluted and spiral plated on TSA. Viability was assessed with colony counting. The minimum biofilm eradication concentration (MBEC) was defined as the lowest concentration of test agent required to reduce viability by 5-log (i.e., 10^8 to 10^3 CFU/mL).
(§4) The biofilm was then removed from its 96 well plate, added to a new 96 well plate containing tobramycin dissolved in PBS (100 µL), and incubated for 20 h. The biofilm was disrupted in 900 µL sterile MilliQ water with pipetting and vortexing, serially diluted, and spiral plated on TSA. Viability was assessed with colony counting.

AR 229 biofilm = test: Biofilm pretreatment with nitric oxide; format: cell-based, P. aeruginosa; details: tobramycin 2 µg/mL, NO-pretreatment 4 h
Protocol: as §3, §4

AR 230 biofilm = test: Biofilm pretreatment with nitric oxide; format: cell-based, P. aeruginosa; details: tobramycin 64 µg/mL, NO-pretreatment 4 h
Protocol: as §3, §4

AR 237 biofilm = test: Biofilm pretreatment with nitric oxide; format: cell-based, P. aeruginosa; details: tobramycin 1 µg/mL, NO-pretreatment 4 h
Protocol: as §3, §4

AR 239 biofilm = test: Biofilm pretreatment with nitric oxide; format: cell-based, P. aeruginosa; details: tobramycin 5000 µg/mL, NO-pretreatment 4 h
Protocol: as §3, §4

[2] = antibiotic 4000 µg/mL, NO-pretreatment 25% MIC 4 h
[3] = AR 542, antibiotic 500 µg/mL, NO-pretreatment 25% MIC 4 h
[4] = tobramycin 16 µg/mL, NO-pretreatment 4 h

## NC[C@H]1O[C@H](O[C@H]2[C@H](O)[C@@H](O[C@H]3O[C@H](CO)[C@@H](O)[C@H](N)[C@H]3O)[C@H](N)C[C@@H]2N)[C@H](N)C[C@@H]1O [Tobramycin]
[1]
  Classification (ΣFIC): Additive
  ΣFIC (median fractional inhibitory concentration index): 0.625
PA 229
  interaction of tobramycin-NO combination: synergistically
PA 230
  interaction of tobramycin-NO combination: indifferent
PA 237
  interaction of tobramycin-NO combination: synergistically
PA 239
  interaction of tobramycin-NO combination: indifferent
AR 229
  Classification: Synergistic
  Log Difference in bacteria viability with vs without NO-pretreatment: 4.08 log
AR 237
  Classification: Synergistic
  Log Difference in bacteria viability with vs without NO-pretreatment: 3.70 log
ATCC S.aureus; ATCC S. aureus, NO-pretreatment
  tobramycin-susceptibility with the addition of NO: significant improvement
ATCC S.aureus; ATCC S.aureus, antibiotic […], NO-pretreatment 25% MIC 4 h
  Log Difference in bacteria viability with vs without NO-pretreatment: 4.88 log
ATCC MRSA; NO-pretreatment
  tobramycin-susceptibility with the addition of NO: significant improvement
ATCC MRSA; [2]
  Classification: Synergistic
  Log Difference in bacteria viability with vs without NO-pretreatment: 4.09 log
ATCC BCC; ATCC BCC, antibiotic […], NO-pretreatment 25% MIC 4 h
  Log Difference in bacteria viability with vs without NO-pretreatment: 5.23 log
ATCC BCC; B. cepacia complex, NO-pretreatment
  tobramycin-susceptibility with the addition of NO: significant improvement
AR 542; [3]
  Classification: Synergistic
  Log Difference in bacteria viability with vs without NO-pretreatment: 2.29 log
AR 542; K. pneumoniae AR 542, NO-pretreatment
  tobramycin-susceptibility with the addition of NO: significant improvement
PAK biofilm; NO-pretreatment lasting less than 4 h
  changes in tobramycin-susceptibility of biofilm: Minimal changes
PAK biofilm; [4]
  Classification: Synergistic
  Log Difference in biofilm viability with vs without NO-pretreatment: 4.71 log
AR 229 biofilm
  Classification: Synergistic
  Log Difference in biofilm viability with vs without NO-pretreatment: 4.39 log
AR 230 biofilm
  Classification: Synergistic
  Log Difference in biofilm viability with vs without NO-pretreatment: 5.15 log
AR 237 biofilm
  Classification: Synergistic
  Log Difference in biofilm viability with vs without NO-pretreatment: 4.85 log
AR 239 biofilm
  Classification: Synergistic
  Log Difference in biofilm viability with vs without NO-pretreatment: 4.90 log
